# Laboratory results reported in US20050085447A1, “Pyrido[3,4-d]pyrimidine derivatives as matrix metalloproteinase-13 inhibitors” (Warner-Lambert Company LLC, priority 2003, published 2005).
# Where two headings read alike, the source gives them in different places.
# Key:
# Type in all cases: biochemical
# [1] = molecular target: T1, MMP-9 full-length (Homo sapiens, UniProt P14780); assay: Thiopeptolide substrate hydrolysis inhibition assay, MMP-9 full-length; details: full-length enzyme; read-out: MMP-9FL IC50
# T1 construct: MMP-8 full-length, MMP-9 full-length, MMP-12 catalytic domain
# Source text: (§1) The assay methods of Biological Examples 1-4 measure the amount by which a test compound reduces the hydrolysis of a thiopeptolide substrate catalyzed by a matrix metalloproteinase enzyme or catalytic domain thereof. It has been shown previously by Ye Qi-Zhuang, Hupe D., and Johnson L. (Current Medicinal Chemistry, 1996;3:407-418) that inhibitor activity against a catalytic domain of an MMP is predictive of the inhibitor activity against the respective full-length MMP enzyme. The methods described below for the inhibition of MMP-13 may also be adapted and used to determine the ability of the compounds of Formula I to inhibit other matrix metalloproteases such as MMP-1, MMP-2, MMP-3, MMP-7, MMP-8, MMP-9, MMP-12, MMP-14, MMP-17, and the like.
# (§2) Thiopeptolide substrates show virtually no decomposition or hydrolysis at or below neutral pH in the absence of a matrix metalloproteinase enzyme. A typical thiopeptolide substrate commonly utilized for assays is Ac-Pro-Leu-Gly-thioester-Leu-Leu-Gly-OEt. A 100 μL assay mixture will contain 50 mM of N-2-hydroxyethylpiperazine-N′-2-ethanesulfonic acid buffer (“HEPES,” pH 7.0), 10 mM CaCl2, 100 μM thiopeptolide substrate, and 1 mM 5,5′-dithio-bis-(2-nitro-benzoic acid) (DTNB). […] The change in absorbance at 405 nm is monitored on a Thermo Max microplate reader (molecular Devices, Menlo Park, Calif.) at room temperature (22° C.). The calculation of the amount of hydrolysis of the thiopeptolide substrate is based on E412=13600 M^−1 cm^−1 for the DTNB-derived product 3-carboxy-4-nitrothiophenoxide. Assays are carried out with and without matrix metalloproteinase inhibitor compounds, and the amount of hydrolysis is compared for a determination of inhibitory activity of the test compounds.
# (§3) Test compounds were evaluated at various concentrations in order to determine their respective IC50 values, the micromolar concentration of compound required to cause a 50% inhibition of catalytic activity of the respective enzyme.
# (§4) Some representative compounds of Formula I have been evaluated for their ability to inhibit MMP-13, MMP-1FL, MMP-3CD, MMP-7FL, MMP-8FL, MMP-9FL, MMP-12CD, MMP-14CD, and/or MMP-17CD, wherein FL means full-length enzyme and CD means a catalytic domain of the full-length enzyme. Test compounds can be evaluated at various concentrations in order to determine their respective IC50 values, the micromolar concentration of compound required to cause a 50% inhibition of the hydrolytic activity of the respective enzyme.
# (§5) Certain compounds of Formula I have also been assayed with MMP-1 full-length, MMP-3 catalytic domain, MMP-7 full-length, MMP-8 full-length, MMP-9 full-length, MMP-12 catalytic domain, MMP-14 catalytic domain, and MMP-17 catalytic domain. […] In Biological Table 2, the compound example numbers for the Compound Examples are indicated in the column labelled “Ex. No.”
# [2] = molecular target: T2, MMP-17 catalytic domain (Homo sapiens, UniProt Q9ULZ9); assay: Thiopeptolide substrate hydrolysis inhibition assay, MMP-17 catalytic domain; details: read-out: MMP-17 CD IC50
# T2 construct: MMP-14 catalytic domain, and MMP-17 catalytic domain
# T2 sequence (Q9ULZ9 126-295 limits assumed): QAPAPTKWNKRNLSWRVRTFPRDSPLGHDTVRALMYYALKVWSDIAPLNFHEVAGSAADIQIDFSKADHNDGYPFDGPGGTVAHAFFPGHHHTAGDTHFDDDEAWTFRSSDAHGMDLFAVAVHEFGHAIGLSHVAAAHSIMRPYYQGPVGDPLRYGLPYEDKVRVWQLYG
# Source text: as §1, §2, §3, §4, §5
# [3] = molecular target: T3, MMP-14 catalytic domain (Homo sapiens, UniProt P50281); assay: Thiopeptolide substrate hydrolysis inhibition assay, MMP-14 catalytic domain; details: read-out: MMP-14CD IC50
# T3 construct: MMP-14 catalytic domain, and MMP-17 catalytic domain
# Source text: as §1, §2, §3, §4, §5
# [4] = molecular target: T4, MMP-8 full-length (Homo sapiens, UniProt P22894); assay: Thiopeptolide substrate hydrolysis inhibition assay, MMP-8 full-length; details: full-length enzyme; read-out: MMP-8FL IC50
# T4 construct: MMP-7 full-length, MMP-8 full-length, MMP-9 full-length
# Source text: as §1, §2, §3, §4, §5
# [5] = molecular target: T5, MMP-1 full-length (Homo sapiens, UniProt P03956); assay: Thiopeptolide substrate hydrolysis inhibition assay, MMP-1 full-length; details: full-length enzyme; read-out: MMP-1FL IC50
# T5 construct: have also been assayed with MMP-1 full-length
# T5 sequence (P03956 100-469): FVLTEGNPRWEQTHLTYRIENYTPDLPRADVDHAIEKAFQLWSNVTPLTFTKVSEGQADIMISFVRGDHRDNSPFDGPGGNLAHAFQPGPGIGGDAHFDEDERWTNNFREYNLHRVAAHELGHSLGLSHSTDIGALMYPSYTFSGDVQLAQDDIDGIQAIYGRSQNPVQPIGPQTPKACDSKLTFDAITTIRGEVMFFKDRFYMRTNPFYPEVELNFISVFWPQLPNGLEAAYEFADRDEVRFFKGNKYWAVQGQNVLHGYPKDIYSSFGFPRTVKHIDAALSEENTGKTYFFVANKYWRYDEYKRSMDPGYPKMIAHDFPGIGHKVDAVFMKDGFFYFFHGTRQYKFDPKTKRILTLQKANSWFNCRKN
# Source text: as §1, §2, §3, §4, §5
# [6] = molecular target: MMP-13 catalytic domain (Homo sapiens, UniProt P45452); assay: Thiopeptolide substrate hydrolysis inhibition assay, MMP-13 catalytic domain
# Source text: The methods described below for the inhibition of MMP-13 may also be adapted and used to determine the ability of the compounds of Formula I to inhibit other matrix metalloproteases such as MMP-1, MMP-2, MMP-3, MMP-7, MMP-8, MMP-9, MMP-12, MMP-14, MMP-17, and the like.
# Thiopeptolide substrates show virtually no decomposition or hydrolysis at or below neutral pH in the absence of a matrix metalloproteinase enzyme. A typical thiopeptolide substrate commonly utilized for assays is Ac-Pro-Leu-Gly-thioester-Leu-Leu-Gly-OEt. A 100 μL assay mixture will contain 50 mM of N-2-hydroxyethylpiperazine-N′-2-ethanesulfonic acid buffer (“HEPES,” pH 7.0), 10 mM CaCl2, 100 μM thiopeptolide substrate, and 1 mM 5,5′-dithio-bis-(2-nitro-benzoic acid) (DTNB). […] Assays are carried out with and without matrix metalloproteinase inhibitor compounds, and the amount of hydrolysis is compared for a determination of inhibitory activity of the test compounds.
# [7] = molecular target: T6, MMP-7 full-length (Homo sapiens, UniProt P09237); assay: Thiopeptolide substrate hydrolysis inhibition assay, MMP-7 full-length; details: full-length enzyme; read-out: MMP-7FL IC50
# T6 construct: MMP-3 catalytic domain, MMP-7 full-length, MMP-8 full-length
# T6 sequence (P09237 95-267): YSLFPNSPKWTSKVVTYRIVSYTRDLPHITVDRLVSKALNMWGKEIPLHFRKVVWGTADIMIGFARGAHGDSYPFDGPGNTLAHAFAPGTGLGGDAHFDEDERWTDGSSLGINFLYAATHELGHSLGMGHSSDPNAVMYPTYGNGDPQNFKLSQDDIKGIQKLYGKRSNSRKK
# Source text: as §1, §2, §3, §4, §5
# [8] = molecular target: T7, MMP-3 catalytic domain (Homo sapiens, UniProt P08254); assay: Thiopeptolide substrate hydrolysis inhibition assay, MMP-3 catalytic domain; details: MES buffer pH 6.0, read-out: MMP-3CD IC50
# T7 construct: MMP-1 full-length, MMP-3 catalytic domain, MMP-7 full-length
# Source text: as §1, §2, §3
# It should be appreciated that the assay buffer used with MMP-3CD was 50 mM N-morpholinoethane sulfonate (“MES”) at pH 6.0 rather than the HEPES buffer at pH 7.0 described above.
# as §4, §5
# [9] = molecular target: T8, MMP-12 catalytic domain (Homo sapiens, UniProt P39900); assay: Thiopeptolide substrate hydrolysis inhibition assay, MMP-12 catalytic domain; details: read-out: MMP-12CD IC50
# T8 construct: MMP-9 full-length, MMP-12 catalytic domain, MMP-14 catalytic domain
# Source text: as §1, §2, §3, §4, §5
# [10] = MMP-13 catalytic domain, read-out: MMP-13CD IC50
# T4 sequence (P22894 101-467): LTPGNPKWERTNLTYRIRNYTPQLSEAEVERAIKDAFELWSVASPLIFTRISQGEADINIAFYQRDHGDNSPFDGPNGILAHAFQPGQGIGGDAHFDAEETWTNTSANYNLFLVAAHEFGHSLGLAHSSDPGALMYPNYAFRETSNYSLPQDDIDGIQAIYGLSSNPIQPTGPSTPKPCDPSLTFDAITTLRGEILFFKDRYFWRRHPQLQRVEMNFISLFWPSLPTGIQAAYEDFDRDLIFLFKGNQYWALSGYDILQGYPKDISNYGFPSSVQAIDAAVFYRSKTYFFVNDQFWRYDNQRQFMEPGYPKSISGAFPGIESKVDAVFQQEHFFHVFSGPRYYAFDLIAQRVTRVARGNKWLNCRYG
# T7 sequence (P08254 100-272 limits assumed): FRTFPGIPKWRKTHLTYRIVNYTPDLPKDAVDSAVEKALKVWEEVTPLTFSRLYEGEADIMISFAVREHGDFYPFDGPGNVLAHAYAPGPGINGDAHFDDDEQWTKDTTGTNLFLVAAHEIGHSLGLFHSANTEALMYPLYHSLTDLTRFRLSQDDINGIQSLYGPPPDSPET
# T1 sequence (P14780 94-707): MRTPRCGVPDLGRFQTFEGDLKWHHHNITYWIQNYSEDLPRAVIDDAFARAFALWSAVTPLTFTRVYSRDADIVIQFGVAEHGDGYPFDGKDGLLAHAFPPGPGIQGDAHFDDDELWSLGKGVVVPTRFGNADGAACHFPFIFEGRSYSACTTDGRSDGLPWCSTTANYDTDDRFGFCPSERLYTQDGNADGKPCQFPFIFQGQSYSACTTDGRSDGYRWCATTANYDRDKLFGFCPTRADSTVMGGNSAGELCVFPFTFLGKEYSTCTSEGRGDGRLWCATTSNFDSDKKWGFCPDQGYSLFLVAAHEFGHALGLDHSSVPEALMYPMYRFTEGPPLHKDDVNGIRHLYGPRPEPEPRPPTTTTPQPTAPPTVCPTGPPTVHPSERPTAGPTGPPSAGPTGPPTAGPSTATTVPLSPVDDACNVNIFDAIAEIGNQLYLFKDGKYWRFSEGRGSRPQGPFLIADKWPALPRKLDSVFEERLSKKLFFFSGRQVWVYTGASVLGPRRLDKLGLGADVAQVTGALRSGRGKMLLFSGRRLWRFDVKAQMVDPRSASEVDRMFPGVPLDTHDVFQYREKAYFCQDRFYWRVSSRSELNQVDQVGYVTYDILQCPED
# T8 sequence (P39900 106-263 limits assumed): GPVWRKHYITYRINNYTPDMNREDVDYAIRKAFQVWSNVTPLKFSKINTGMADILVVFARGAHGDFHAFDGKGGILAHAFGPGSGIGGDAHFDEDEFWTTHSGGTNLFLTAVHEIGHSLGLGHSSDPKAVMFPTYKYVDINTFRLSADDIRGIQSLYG
structure (smiles),measurement,setting,value
"COc1cccc(CNC(=O)c2cc3c(=O)n(Cc4ccc(C(=O)O)cc4)cnc3cn2)c1 [Compound Example 2, 4-[6-(3-methoxy-benzylcarbamoyl)-4-oxo-4H-pyrido[3,4-d]pyrimidin-3-ylmethyl]-benzoic acid]",IC50,[1],> 100 µM
same,IC50,[2],> 100 µM
same,IC50,[3],> 100 µM
same,IC50,[4],> 100 µM
same,IC50,[5],> 100 µM
same,IC50,[6]; [10],0.0013 µM
same,IC50,[7],> 100 µM
same,IC50,[8],14 µM
"O=C(O)c1ccc(Cn2cnc3cnc(C(=O)NCc4cccnc4)cc3c2=O)cc1 [Compound Example 3, 4-{4-oxo-6-[(pyridin-3-ylmethyl)-carbamoyl]-4H-pyrido[3,4-d]pyrimidin-3-ylmethyl}-benzoic acid]",IC50,[1],> 100 µM
same,IC50,[2],> 100 µM
same,IC50,[3],> 100 µM
same,IC50,[4],> 100 µM
same,IC50,[5],> 100 µM
same,IC50,[6]; [10],0.032 µM
same,IC50,[7],> 100 µM
same,IC50,[8],> 100 µM
"O=C(O)c1ccc(Cn2cnc3cnc(C(=O)NCc4ccc(Cl)cc4)cc3c2=O)cc1 [Compound Example 4, 4-[6-(4-chloro-benzylcarbamoyl)-4-oxo-4H-pyrido [3,4-d]pyrimidin-3-ylmethyl]-benzoic acid]",IC50,[1],> 100 µM
same,IC50,[2],> 100 µM
same,IC50,[3],> 100 µM
same,IC50,[5],> 100 µM
same,IC50,[6],0.01 µM
same,IC50,[7],> 100 µM
same,IC50,[8],> 100 µM
"O=C(O)c1ccc(Cn2cnc3cnc(C(=O)NCc4ccncc4)cc3c2=O)cc1 [Compound Example 5, 4-{4-oxo-6-[(pyridin-4-ylmethyl)-carbamoyl]-4H-pyrido[3,4-d]pyrimidin-3-ylmethyl}-benzoic acid]",IC50,[2],> 100 µM
same,IC50,[9],> 100 µM
same,IC50,[3],> 100 µM
same,IC50,[6]; [10],0.005 µM
same,IC50,[8],81 µM
"COc1cc(CNC(=O)c2cc3c(=O)n(Cc4ccc(C(=O)O)cc4)cnc3cn2)ccn1 [Compound Example 6, 4-{6-[(2-methoxy-pyridin-4-ylmethyl)-carbamoyl]-4-oxo-4H-pyrido [3,4-d]pyrimidin-3-ylmethyl}-benzoic acid]",IC50,[2],> 100 µM
same,IC50,[9],> 100 µM
same,IC50,[3],> 100 µM
same,IC50,[8],17 µM
"O=C(O)c1ccc(Cn2cnc3cnc(C(=O)NCc4cccc(Cl)c4)cc3c2=O)cc1 [Compound Example 10, 4-[6-(3-chloro-benzylcarbamoyl)-4-oxo-4H-pyrido[3,4-d]pyrimidin-3-ylmethyl]-benzoic acid]",IC50,[1],> 100 µM
same,IC50,[2],> 100 µM
same,IC50,[3],> 100 µM
same,IC50,[4],> 100 µM
same,IC50,[5],> 100 µM
same,IC50,[7],> 100 µM
same,IC50,[8],41 µM
"O=C(O)c1ccc(Cn2cnc3cnc(C(=O)NCc4cccc(F)c4)cc3c2=O)cc1 [Compound Example 11, 4-[6-(3-fluoro-benzylcarbamoyl)-4-oxo-4H-pyrido[3,4-d]pyrimidin-3-ylmethyl]-benzoic acid]",IC50,[1],> 100 µM
same,IC50,[2],> 100 µM
same,IC50,[3],> 100 µM
same,IC50,[4],> 100 µM
same,IC50,[5],> 100 µM
same,IC50,[6],0.017 µM
same,IC50,[7],> 100 µM
same,IC50,[8],> 100 µM
"O=C(O)c1ccc(Cn2cnc3cnc(C(=O)NCc4ccc(C(F)(F)F)cc4)cc3c2=O)cc1 [Compound Example 12, 4-[4-oxo-6-(4-trifluoromethyl-benzylcarbamoyl)-4H-pyrido[3,4-d]pyrimidin-3-ylmethyl]-benzoic acid]",IC50,[1],> 100 µM
same,IC50,[2],> 100 µM
same,IC50,[3],> 100 µM
same,IC50,[4],> 100 µM
same,IC50,[5],> 100 µM
same,IC50,[6],0.097 µM
same,IC50,[7],> 100 µM
same,IC50,[8],> 100 µM
"O=C(O)c1ccc(Cn2cnc3cnc(C(=O)NCc4cccc(C(F)(F)F)c4)cc3c2=O)cc1 [Compound Example 13, 4-[4-oxo-6-(3-trifluoromethyl-benzylcarbamoyl)-4H-pyrido[3,4-d]pyrimidin-3-ylmethyl]-benzoic acid]",IC50,[1],> 100 µM
same,IC50,[2],> 100 µM
same,IC50,[3],> 100 µM
same,IC50,[5],> 100 µM
same,IC50,[6],0.0026 µM
same,IC50,[7],> 100 µM
same,IC50,[8],48 µM
"O=C(O)c1ccc(Cn2cnc3cnc(C(=O)NCc4ccc(F)c(F)c4)cc3c2=O)cc1 [Compound Example 14, 4-[6-(3,4-difluoro-benzylcarbamoyl)-4-oxo-4H-pyrido[3,4-d]pyrimidin-3-ylmethyl]-benzoic acid]",IC50,[1],> 100 µM
same,IC50,[2],> 100 µM
same,IC50,[3],> 100 µM
same,IC50,[4],> 100 µM
same,IC50,[5],> 100 µM
same,IC50,[6]; [10],0.0053 µM
same,IC50,[7],> 100 µM
same,IC50,[8],42 µM
"COc1cc(CNC(=O)c2cc3c(=O)n(Cc4ccc(C(=O)O)cc4)cnc3cn2)ccc1O [Compound Example 15, 4-[6-(4-hydroxy-3-methoxy-benzylcarbamoyl)-4-oxo-4H-pyrido[3,4-d]pyrimidin-3-ylmethyl]-benzoic acid]",IC50,[1],> 100 µM
same,IC50,[2],> 100 µM
same,IC50,[3],> 30 µM
same,IC50,[4],> 100 µM
same,IC50,[5],> 100 µM
same,IC50,[6]; [10],0.02 µM
same,IC50,[7],> 30 µM
same,IC50,[8],> 100 µM
